Structures are written as SMILES.

The nature of this series: RP, Waters ACQUITY Premier BEH C18, 100 × 2.1 mm, 1.7 µm, 40 °C, 0.3 to 0.4 mL/min, estimated dead time 0.73 min; A: water + 0.1% formic acid; B: acetonitrile + 0.1% formic acid; gradient (min/%B) 0/0.5 0.1/0.5 10/80 10.1/99.5 12/0.5 12.1/0.5 14.5/0.5. The settings on record: stereoisomer not certain.
Consider `O=c1c(O)c(-c2ccccc2)oc2cc(O)cc(O)c12` [NORIZALPININ], for which the LC retention time is 7.12 min. As to `CC(C)(N)C(=O)O` [2-AMINOISOBUTYRATE], the LC retention time is 0.886 min.

For `CC1OC(Oc2c(-c3cc(O)c(O)c(O)c3)oc3cc(O)cc(O)c3c2=O)C(O)C(O)C1O` (stereo not drawn) [MYRICITRIN], the LC retention time is 4.4 min. To `O=C(O)CCCCCCCCCCCNC(=O)NC1CCCCC1` [CUDA] belongs 7.47 min; to `CCCOC(=O)c1ccc(O)cc1` [PROPYLPARABEN], 6.78 min; to `O=c1cc[nH]c2c(O)cccc12` [QUINOLINE-4,8-DIOL], 4.14 min. To `O=c1ccc2cc(OC3OC(CO)C(O)C(O)C3O)c(O)cc2o1` (stereo not drawn) [AESCULIN] belongs 3.14 min; to `O=c1cc[nH]c(=O)[nH]1` [URACIL], 1.39 min; to `COc1c2ccoc2cc2oc(=O)ccc12` [BERGAPTEN], 6.74 min. Then `Nc1cc(C(=O)O)ccc1O` [3-AMINO-4-HYDROXYBENZOATE], with 1.37 min. Turning to `COc1cc2ccc(=O)oc2cc1O` [SCOPOLETIN], the LC retention time is 4.62 min.

Consider `CC(C)(CO)C(O)C(=O)NCCC(=O)O` (stereo not drawn) [PANTOTHENATE], for which the LC retention time is 3.72 min. Then `Nc1ncnc2c1ncn2C1OC(COP(=O)(O)O)C(OP(=O)(O)O)C1O` (stereo not drawn) [ADENOSINE 3',5'-DIPHOSPHATE], with 1.11 min. Then `O=C(O)CCCCCCCCCCCCCCCO` [16-HYDROXY HEXADECANOIC ACID], with 7.82 min; and `CC(=O)OC1CC2CCC1(C)C2(C)C` (single isomer, unassigned; (-)) [(-)-BORNYL ACETATE], with 7.47 min; and `CC1C(=O)OC2C(O)C34C5OC(=O)C3(OC3OC(=O)C(O)C34C(C(C)(C)C)C5O)C12O` (stereo not drawn) [GINKGOLIDE C], with 4.74 min. Then `O=C(O)C=Cc1cnc[nH]1` [UROCANATE], with 1.39 min.

On to `O=C(O)CCCCCCC(=O)NCC(=O)O` [SUBERYLGLYCINE], for which the LC retention time is 3.79 min. As to `O=C(O)CCCc1c[nH]c2ccccc12` [3-INDOLEBUTYRIC ACID], the LC retention time was 6.25 min.

For the compound `OCC1OC(Oc2c[nH]c3ccccc23)C(O)C(O)C1O` (stereo not drawn), the LC retention time was 4.43 min. To `CC12CCC(=O)C=C1CCC1C2C(O)CC2(C)C1CCC2(O)C(=O)CO` (stereo not drawn) [CORTISOL] belongs 6.06 min. In the case of `O=c1cc(CO)occ1O` [KOJIC ACID], the LC retention time was 1.17 min. Then `OCc1ccccc1OC1OC(CO)C(O)C(O)C1O` (stereo not drawn) [SALICIN], with 2.95 min; and `CCCCC(=O)C(=O)O` [2-KETOHEXANOIC ACID], with 4.8 min.

Consider `O=c1cc(-c2ccc(O)c(O)c2)oc2cc(OC3OC(CO)C(O)C(O)C3O)cc(O)c12` (stereo not drawn) [LUTEOLIN-7-GLUCOSIDE], for which the LC retention time was 4.44 min.

With `O=c1[nH]c(=O)c2ncn(C3OC(CO)C(O)C3O)c2[nH]1` (stereo not drawn) [XANTHOSINE], the LC retention time was 3.45 min.

For the compound `O=C(O)Cc1cnc[nH]1` [4-IMIDAZOLEACETATE], the LC retention time is 0.92 min.

On to `Cc1ncc(CO)c(C=O)c1O` [PYRIDOXAL], for which the LC retention time is 0.923 min. Then `O=C(O)c1cccnc1` [NICOTINATE], with 1.42 min; and `CC12CCC3c4ccc(O)cc4CCC3C1CCC2O` (stereo not drawn) [ESTRADIOL-17ALPHA], with 7.15 min; and `O=c1c(O)c(-c2ccc(O)cc2)oc2cc(O)cc(O)c12` [KAEMPFEROL], with 6.13 min. To `CC1NC(=O)NC1CCCCCC(=O)O` (stereo not drawn) [DETHIOBIOTIN] belongs 4.85 min; to `O=C(O)c1ccnc2ccccc12` [4-QUINOLINECARBOXYLATE], 3.01 min; to `COc1cc(CC(=O)O)ccc1O` [HOMOVANILLATE], 4.66 min. In the case of `O=C1CCCC(C(=O)O)N1` (stereo not drawn) [6-OXOPIPERIDINE-2-CARBOXYLIC ACID], the LC retention time was 1.34 min. As for `O=C(O)C[C@H]1CC[C@@H](O)CC1` [CIS-4-HYDROXYCYCLOHEXYLACETIC ACID], the LC retention time was 4.12 min. To `Nc1ccn(C2CC(O)C(COP(=O)(O)O)O2)c(=O)n1` (stereo not drawn) [DEOXYCYTIDINE MONOPHOSPHATE] belongs 1.37 min; to `Nc1cc(O)cc(C(=O)O)c1` [3-AMINO-5-HYDROXYBENZOATE], 1.49 min. Then `Cc1cc2nc3c(=O)[nH]c(=O)nc-3n(CC(O)C(O)C(O)CO)c2cc1C` (stereo not drawn) [RIBOFLAVIN], with 4.4 min. `O=C(O)CC(C(=O)O)C(O)C(=O)O` (stereo not drawn) [ISOCITRATE]: the LC retention time is 1.16 min. `O=C([O-])C(O)Cc1ccc(O)c(O)c1.[Na+]` (stereo not drawn) [3-(3,4-DIHYDROXYPHENYL)LACTIC ACID]: the LC retention time is 3.74 min. Regarding `O=C(O)c1cccnc1C(=O)O` [QUINOLINATE], the LC retention time was 1.61 min. As for `CCCCCC(N)C(=O)O` (stereo not drawn) [2-AMINOHEPTANOATE], the LC retention time was 2.81 min. Regarding `O=c1cc(-c2ccccc2)oc2ccccc12` [FLAVONE], the LC retention time was 7.23 min. To `COc1cc(C=CC(=O)O)cc(OC)c1OC` [3,4,5-TRIMETHOXYCINNAMIC ACID] belongs 5.7 min; to `CSCCC(O)C(=O)O` (stereo not drawn) [2-HYDROXY-4-(METHYLTHIO)BUTANOATE], 4.06 min. For the compound `OCC1OC(OCC2OC(OC3(CO)OC(CO)C(O)C3O)C(O)C(O)C2O)C(O)C(O)C1O` (stereo not drawn) [RAFFINOSE], the LC retention time was 0.962 min. With `CC(CCC(=O)O)C1CCC2C3C(O)C(O)C4CC(O)CCC4(C)C3CCC12C` (stereo not drawn) [HYOCHOLIC ACID], the LC retention time was 6.98 min. For the compound `CC(=O)NCC(=O)O` [N-ACETYLGLYCINE], the LC retention time is 1.26 min. Then `Nc1ccn(C2OC(CO)C3OP(=O)(O)OC32)c(=O)n1` (stereo not drawn) [CYTIDINE 2',3'-CYCLIC PHOSPHATE], with 0.94 min. Turning to `O=c1cc(C2Oc3cc(O)cc(O)c3CC2O)cc2c(C3Oc4cc(O)cc(O)c4CC3O)cc(O)c(O)c2c1O` (stereo not drawn) [THEAFLAVIN], the LC retention time was 5.18 min.

As to `CCCC(=O)O` [BUTANOATE], the LC retention time is 3.99 min. Then `CCCCCC=CCC=CCCCCCCCC(=O)O` [LINOLEATE], with 7.75 min. As for `O=C(O)CCc1ccc(O)c(O)c1` [3,4-DIHYDROXYHYDROCINNAMIC ACID], the LC retention time is 4.42 min. Then `CCCCC(N)C(=O)O` (stereo not drawn) [NORLEUCINE], with 2.79 min; and `Cc1c(O)cc2c(c1C)OC(C)(CCC(=O)O)CC2` (stereo not drawn) [GAMMA-CEHC], with 6.69 min.

For `COc1ccc(-c2coc3cc(O)cc(O)c3c2=O)cc1` [BIOCHANIN A], the LC retention time is 7.15 min. As to `OCCc1ccc(O)c(O)c1` [HYDROXYTYROSOL], the LC retention time is 3.89 min. To `COc1cc(C(=O)O)ccc1O` [VANILLIC ACID] belongs 3.91 min; to `Nc1ncnc2c1ncn2C1OC(COP(=O)(O)OP(=O)(O)OC2OC(CO)C(O)C(O)C2O)C(O)C1O` (stereo not drawn) [ADP-GLUCOSE], 1.16 min; to `O=C(O)CNC(=O)c1ccccc1` [HIPPURATE], 4.57 min.

For the compound `COc1cc(CC2C(=O)OCC2Cc2ccc(OC)c(OC)c2)ccc1O` (stereo not drawn) [ARCTIGENIN], the LC retention time was 6.63 min. Then `Cn1c(=O)[nH]c2ncn(C)c2c1=O` [PARAXANTHINE], with 3.95 min.

For `O=C(O)c1ccc(O)cc1O` [2,4-DIHYDROXYBENZOIC ACID], the LC retention time was 4 min.

For the compound `CCCCCCCCCCCCCC(=O)OCC(O)CO` (stereo not drawn) [GLYCEROL-MYRISTATE], the LC retention time is 8.67 min. Then `CCCCCCCCCCCC(=O)OC(CC(=O)O)C[N+](C)(C)C.[Cl-]` (stereo not drawn) [ISTD_LAUROYL-CARNITINE-D3], with 7.14 min; and `COc1ccc(-c2cc(=O)c3c(OC)c(OC)c(OC)c(OC)c3o2)cc1` [TANGERETIN], with 7.26 min; and `Nc1ccn(C2CC(O)C(CO)O2)c(=O)n1` (stereo not drawn) [DEOXYCYTIDINE], with 1.78 min. Regarding `CCC(C(=O)O)C(=O)O` [ETHYLMALONATE], the LC retention time was 3.85 min. With `CC(O)(CCO)CC(=O)O` (stereo not drawn) [MEVALONATE], the LC retention time is 2.75 min. As to `CC(C)C(=O)OC(CC(=O)[O-])C[N+](C)(C)C` [ISOBUTYRYL-L-CARNITINE], the LC retention time is 3.82 min.

As for `C=CCC(=NOS(=O)(=O)O)SC1OC(CO)C(O)C(O)C1O` (stereo not drawn) [SINIGRIN], the LC retention time was 2.03 min. Then `Nc1nc2[nH]c(=O)cnc2c(=O)[nH]1` [ISOXANTHOPTERIN], with 1.02 min; and `O=C(O)CCCCC1SCC2NC(=O)NC21` (stereo not drawn) [BIOTIN], with 4.59 min. `Cc1ccc(O)c(O)c1` [4-METHYLCATECHOL]: the LC retention time was 4.34 min. Then `O=C(O)C(=O)c1ccccc1` [PHENYLGLYOXYLIC ACID], with 5.53 min.

Regarding `O=c1ccn(C2OC(COP(=O)(O)O)C(O)C2O)c(=O)[nH]1` (stereo not drawn) [URIDINE MONOPHOSPHATE], the LC retention time is 1.26 min.

`O=c1cc(-c2ccc(O)cc2)oc2cc(O)cc(O)c12` [APIGENIN]: the LC retention time was 6.02 min. Then `COc1ccc(-c2coc3cc(O)ccc3c2=O)cc1` [FORMONONETIN], with 6.65 min; and `CCCCC(CC)COC(=O)c1ccccc1C(=O)OCC(CC)CCCC` (stereo not drawn) [BIS(2-ETHYLHEXYL)PHTHALATE], with 10.7 min. Take `CC(=O)NC(C)C(=O)O` (stereo not drawn) [N-ACETYLALANINE]: the LC retention time is 2.4 min. Consider `CC(=O)NC(CC(C)C)C(=O)O` (stereo not drawn) [N-ACETYLLEUCINE], for which the LC retention time is 4.88 min. Then `NC(=O)NCCC(=O)O` [UREIDOPROPIONATE], with 1.27 min.

The values are drawn from the RepoRT retention time repository.
